In patent US8633207B2, “Quinazoline compounds and methods of use thereof” (Ambit Biosciences Corporation, priority 2010, dated 2014):

Columns and labels:
Tyk2 = target: T1, Tyk2 (Homo sapiens, UniProt P29597); test: Competition binding assay to determine Kd against JAK kinases: Tyk2
T1 construct: made in house; host or cells: T7 phage display, or HEK-293 cells (alternative)
Excerpt: (§1) Competition Binding Assay to Determine Binding Constants (Kd) of the Compounds Against JAK Kinases
(§2) Competition binding assays used herein were developed, validated and performed as described in Fabian et al., Nature Biotechnology 2005, 23, 329-336. Kinases were produced as fusions to T7 phage (See, Fabian et al. or WO04/015142) or alternatively, the kinases were expressed in HEK-293 cells and subsequently tagged with DNA for PCR detection (See, WO08/005,310). For the binding assays, streptavidin-coated magnetic beads were treated with biotinylated affinity ligands for 30 min at rt to generate affinity resins. The liganded beads were blocked with excess biotin and washed with blocking buffer (SeaBlock (Pierce), 1% BSA, 0.05% Tween 20, 1 mM DTT) to remove unbound ligand and to reduce non-specific binding. Binding reactions were assembled by combining kinase, liganded affinity beads, and test compounds in 1× binding buffer (20% SeaBlock, 0.17×PBS, 0.05% Tween 20, 6 mM DTT). Test compounds were prepared as 100× stocks in DMSO and rapidly diluted into the aqueous environment. DMSO was added to control assays lacking a test compound. Primary screen interactions were performed in polypropylene 384-well plates in a final volume of 34 μL, while Kd determinations were performed in polystyrene 96-well plates in a final volume of 135 μL. The assay plates were incubated at room temperature with shaking for 1 hour, long enough for binding reactions to reach equilibrium, and the affinity beads were washed extensively with wash buffer (1×PBS, 0.05% Tween 20) to remove unbound protein. The beads were then resuspended in elution buffer (1×PBS, 0.05% Tween 20, 2 μM non-biotinylated affinity ligand) and incubated at room temperature with shaking for 30 min. The kinase concentration in the eluates was measured by quantitative PCR. Each kinase was tested individually against each compound. Kds were determined using eleven serial threefold dilutions. A selectivity score, which is a quantitative measure of selectivity of a compound against a panel of enzymes, may be calculated for a compound by dividing the number of enzymes for which a compound meets a set criteria, (for example, a binding constant of 100 nM or less), by the total number of enzymes tested.

JAK2 = target: T2, JAK2 (Homo sapiens, UniProt O60674); test: Competition binding assay to determine Kd against JAK kinases: JAK2
T2 construct: made in house; host or cells: T7 phage display, or HEK-293 cells (alternative)
T2 sequence (O60674 whole entry): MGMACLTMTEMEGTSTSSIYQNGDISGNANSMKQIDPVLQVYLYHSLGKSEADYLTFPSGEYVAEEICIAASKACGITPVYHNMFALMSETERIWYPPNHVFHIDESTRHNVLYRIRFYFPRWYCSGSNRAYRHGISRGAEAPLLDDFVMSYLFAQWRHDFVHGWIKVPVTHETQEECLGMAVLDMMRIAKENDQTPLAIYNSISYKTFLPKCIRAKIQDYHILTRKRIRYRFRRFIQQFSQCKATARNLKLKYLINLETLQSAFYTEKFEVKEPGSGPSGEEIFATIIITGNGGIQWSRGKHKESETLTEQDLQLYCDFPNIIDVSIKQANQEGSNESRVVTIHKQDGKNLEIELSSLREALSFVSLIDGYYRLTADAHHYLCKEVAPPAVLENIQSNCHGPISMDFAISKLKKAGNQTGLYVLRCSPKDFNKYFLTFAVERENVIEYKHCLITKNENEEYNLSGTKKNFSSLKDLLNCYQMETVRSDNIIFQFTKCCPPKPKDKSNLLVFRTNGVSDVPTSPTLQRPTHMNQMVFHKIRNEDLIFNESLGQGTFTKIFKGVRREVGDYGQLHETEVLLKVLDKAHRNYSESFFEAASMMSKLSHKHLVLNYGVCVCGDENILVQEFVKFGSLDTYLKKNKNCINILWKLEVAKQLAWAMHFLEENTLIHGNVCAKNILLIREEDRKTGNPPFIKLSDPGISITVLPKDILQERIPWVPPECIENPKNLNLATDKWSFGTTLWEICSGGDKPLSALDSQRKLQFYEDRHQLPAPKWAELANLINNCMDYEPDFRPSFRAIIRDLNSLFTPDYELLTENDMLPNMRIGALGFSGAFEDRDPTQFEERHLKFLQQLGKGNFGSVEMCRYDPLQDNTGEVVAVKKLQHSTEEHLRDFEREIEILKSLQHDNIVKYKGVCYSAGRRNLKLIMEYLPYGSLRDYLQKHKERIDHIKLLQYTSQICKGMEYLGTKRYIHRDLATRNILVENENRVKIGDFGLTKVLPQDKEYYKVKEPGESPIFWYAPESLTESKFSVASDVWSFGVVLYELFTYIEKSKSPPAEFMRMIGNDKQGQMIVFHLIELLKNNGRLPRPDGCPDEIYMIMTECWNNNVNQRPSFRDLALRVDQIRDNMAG
Excerpt: as §1, §2

JAK3 = target: T3, JAK3 (Homo sapiens, UniProt P52333); test: Competition binding assay to determine Kd against JAK kinases: JAK3
T3 construct: made in house; host or cells: T7 phage display, or HEK-293 cells (alternative)
T3 sequence (P52333 1-1124): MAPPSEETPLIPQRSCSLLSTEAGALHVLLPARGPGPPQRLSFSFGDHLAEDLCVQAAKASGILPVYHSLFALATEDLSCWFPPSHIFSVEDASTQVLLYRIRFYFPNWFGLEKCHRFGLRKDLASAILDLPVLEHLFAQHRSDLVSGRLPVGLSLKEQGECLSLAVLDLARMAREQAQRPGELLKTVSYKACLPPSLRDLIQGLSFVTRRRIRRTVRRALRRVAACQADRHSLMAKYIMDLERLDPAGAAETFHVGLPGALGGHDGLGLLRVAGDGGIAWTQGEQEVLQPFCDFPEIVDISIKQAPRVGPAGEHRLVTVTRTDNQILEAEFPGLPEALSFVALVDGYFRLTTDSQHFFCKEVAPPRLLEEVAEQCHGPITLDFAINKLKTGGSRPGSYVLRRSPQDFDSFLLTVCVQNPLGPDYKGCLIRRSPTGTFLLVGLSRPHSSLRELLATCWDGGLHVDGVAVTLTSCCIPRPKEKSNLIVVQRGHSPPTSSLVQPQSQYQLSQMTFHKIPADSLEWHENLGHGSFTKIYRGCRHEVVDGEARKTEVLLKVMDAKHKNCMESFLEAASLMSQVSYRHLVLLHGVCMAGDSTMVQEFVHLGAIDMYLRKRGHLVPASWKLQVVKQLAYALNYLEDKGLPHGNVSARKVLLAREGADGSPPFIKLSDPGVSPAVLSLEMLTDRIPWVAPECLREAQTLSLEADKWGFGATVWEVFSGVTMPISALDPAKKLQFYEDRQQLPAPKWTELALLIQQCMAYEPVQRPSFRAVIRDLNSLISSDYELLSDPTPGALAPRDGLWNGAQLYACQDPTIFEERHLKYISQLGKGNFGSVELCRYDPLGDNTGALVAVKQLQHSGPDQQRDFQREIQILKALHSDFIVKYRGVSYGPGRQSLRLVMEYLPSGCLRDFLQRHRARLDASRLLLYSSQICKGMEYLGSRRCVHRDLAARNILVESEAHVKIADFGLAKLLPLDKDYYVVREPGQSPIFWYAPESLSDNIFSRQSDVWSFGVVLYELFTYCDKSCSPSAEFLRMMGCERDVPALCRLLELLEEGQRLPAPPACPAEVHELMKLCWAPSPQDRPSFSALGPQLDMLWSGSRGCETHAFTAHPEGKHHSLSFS
Excerpt: as §1, §2

[1] = system: GM-CSFR/JAK2/STAT5 pathway; test: csTF-1 cell-based reporter assay; conditions: Homo sapiens; csTF-1 cells, GM-CSF at 2 ng/mL, 4 hours; read-out: Cell Assay: CS TF-1 reporter assay IC50
Protocol: csTF-1 Cell-Based Reporter Assay
csTF-1 cells are derived from the human erythroleukemia cell line that is growth dependent on GM-CSF and has an intact GM-CSFR/JAK2/STAT5 pathway. The cell line contains stably integrated beta-lactamase reporter gene under the control of the […] (irf 1) response element recognized by the activated transcription factor STATS. csTF-1 cells (Invitrogen K1219) were washed with assay media (97% OPTIMEM/0.5% dialyzed FBS/0.1 mM NEAA/1 mM Na pyr/P/S) and seeded in the same media at 5×10^5 cell/mL in T150 flask. After 16 hour incubation, cells were seeded at 2×10^5 cell/well in 50 μl volume, into Costar, clear bottom, 96-well assay plates. Serial dilutions of compounds were added to the plates with final DMSO concentration at 0.5% and GM-CSF at 2 ng/mL and the plates were then incubated at […] and 5% CO2 for 4 hours. The plates were brought to room temperature before adding Substrate Mixture according to manufacturer's protocol (Invitrogen, Catalog #K1085). The assay plates containing the substrate mixture were incubated in the dark at room temperature for 2 hours. Blue and green fluorescence was measured with excitation at 409 nm and emission at 460 nm (for blue) and excitation at 409 nm and emission at 530 nm (for green) using Spectra Max Gemini EM.

T1 sequence (P29597 whole entry): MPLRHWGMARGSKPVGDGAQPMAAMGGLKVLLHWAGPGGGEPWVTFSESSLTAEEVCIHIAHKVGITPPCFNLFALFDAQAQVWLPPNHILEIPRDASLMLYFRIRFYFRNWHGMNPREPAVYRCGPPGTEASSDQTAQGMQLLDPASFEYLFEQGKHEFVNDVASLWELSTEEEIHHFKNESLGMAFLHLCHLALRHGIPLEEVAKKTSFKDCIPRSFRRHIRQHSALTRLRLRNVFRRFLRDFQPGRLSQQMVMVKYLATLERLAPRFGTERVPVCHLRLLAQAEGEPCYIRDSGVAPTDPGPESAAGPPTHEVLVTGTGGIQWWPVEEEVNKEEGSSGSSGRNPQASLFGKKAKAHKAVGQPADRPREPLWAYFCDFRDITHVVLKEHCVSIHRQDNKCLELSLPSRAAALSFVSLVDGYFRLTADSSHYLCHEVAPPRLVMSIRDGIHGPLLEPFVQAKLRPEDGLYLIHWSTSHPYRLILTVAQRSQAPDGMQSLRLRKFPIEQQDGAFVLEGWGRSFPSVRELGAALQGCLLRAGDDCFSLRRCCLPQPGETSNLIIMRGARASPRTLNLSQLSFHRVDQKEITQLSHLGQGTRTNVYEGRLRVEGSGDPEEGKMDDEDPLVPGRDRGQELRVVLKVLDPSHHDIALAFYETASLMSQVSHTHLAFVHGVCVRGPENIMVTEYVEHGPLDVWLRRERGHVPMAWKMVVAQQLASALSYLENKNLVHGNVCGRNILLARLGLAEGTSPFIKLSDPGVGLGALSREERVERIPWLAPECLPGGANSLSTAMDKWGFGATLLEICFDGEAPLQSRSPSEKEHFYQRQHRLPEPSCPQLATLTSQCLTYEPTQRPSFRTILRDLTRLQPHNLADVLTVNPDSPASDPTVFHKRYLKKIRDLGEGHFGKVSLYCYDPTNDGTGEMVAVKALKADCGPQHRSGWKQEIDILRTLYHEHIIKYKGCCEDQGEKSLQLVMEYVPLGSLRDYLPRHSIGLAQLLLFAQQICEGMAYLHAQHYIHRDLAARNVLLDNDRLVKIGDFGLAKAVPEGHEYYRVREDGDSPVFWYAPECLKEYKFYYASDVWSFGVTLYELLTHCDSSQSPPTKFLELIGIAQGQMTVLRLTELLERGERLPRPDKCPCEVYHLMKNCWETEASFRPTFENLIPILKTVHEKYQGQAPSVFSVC

Kd (Tyk2)	Kd (JAK2)	Kd (JAK3)	IC50 [1]	Structure (SMILES)
10 to 100 nM	1 to 10 nM	> 100 nM	100 to 500 nM	Cc1cnc(Nc2nc(C(F)(F)c3ccc(F)cn3)nc3ccccc23)s1 [Example 30, N-(2-(difluoro(5-fluoropyridin-2-yl)methyl)quinazolin-4-yl)-5-methylthiazol-2-amine]
10 to 100 nM	> 10 nM	> 100 nM	> 500 nM	Fc1ccc(C(F)(F)c2nc(Nc3nc[nH]n3)c3ccccc3n2)nc1 [Example 31, 2-(difluoro(5-fluoropyridin-2-yl)methyl)-N-(1H-1,2,4-triazol-3-yl)quinazolin-4-amine]
10 to 100 nM	1 to 10 nM	> 100 nM	100 to 500 nM	Cc1cc(Nc2nc(C(F)(F)c3ccc(F)cn3)nc3c(C(F)(F)F)cccc23)n[nH]1 [Example 33, 2-(difluoro(5-fluoropyridin-2-yl)methyl)-N-(5-methyl-1H-pyrazol-3-yl)-8-(trifluoromethyl)quinazolin-4-amine]
≤ 10 nM	1 to 10 nM	10 to 100 nM	100 to 500 nM	Cc1cc(Nc2nc(C(F)(F)c3ccc(F)cn3)nc3c(OC(F)(F)F)cccc23)n[nH]1 [Example 34, 2-(difluoro(5-fluoropyridin-2-yl)methyl)-N-(5-methyl-1H-pyrazol-3-yl)-8-(trifluoromethoxy)quinazolin-4-amine]
≤ 10 nM	≤ 1 nM	10 to 100 nM	100 to 500 nM	Cc1cc(Nc2nc(C(F)(F)c3ccc(F)cn3)nc3c(C#N)cccc23)n[nH]1 [Example 35, 2-(difluoro(5-fluoropyridin-2-yl)methyl)-4-((5-methyl-1H-pyrazol-3-yl)amino)quinazoline-8-carbonitrile]
≤ 10 nM	≤ 1 nM	10 to 100 nM	100 to 500 nM	CCc1cccc2c(Nc3cc(C)[nH]n3)nc(C(F)(F)c3ccc(F)cn3)nc12 [Example 36, 2-(difluoro(5-fluoropyridin-2-yl)methyl)-8-ethyl-N-(5-methyl-1H-pyrazol-3-yl)quinazolin-4-amine]
≤ 10 nM	1 to 10 nM	10 to 100 nM	100 to 500 nM	Cc1cc(Nc2nc(C(F)(F)c3ccc(F)cn3)nc3c(S(C)(=O)=O)cccc23)n[nH]1 [Example 37, 2-(difluoro(5-fluoropyridin-2-yl)methyl)-N-(5-methyl-1H-pyrazol-3-yl)-8-(methylsulfonyl)quinazolin-4-amine]
≤ 10 nM	≤ 1 nM	≤ 10 nM	100 to 500 nM	Cc1cc(Nc2nc(C(F)(F)c3ccc(F)cn3)nc3cc(S(C)(=O)=O)ccc23)n[nH]1 [Example 38, 2-(difluoro(5-fluoropyridin-2-yl)methyl)-N-(5-methyl-1H-pyrazol-3-yl)-7-(methylsulfonyl)quinazolin-4-amine]
≤ 10 nM	≤ 1 nM	≤ 10 nM	≤ 100 nM	Cc1cc(Nc2nc(C(F)(F)c3ccc(F)cn3)nc3c(C(N)=O)cccc23)n[nH]1 [Example 39, 2-(difluoro(5-fluoropyridin-2-yl)methyl)-4-((5-methyl-1H-pyrazol-3-yl)amino)quinazoline-8-carboxamide]
≤ 10 nM	≤ 1 nM	10 to 100 nM	≤ 100 nM	Cc1cc(Nc2nc(C(F)(F)c3ncc(F)cn3)nc3c(Cl)cccc23)n[nH]1 [Example 40, 8-chloro-2-(difluoro(5-fluoropyrimidin-2-yl)methyl)-N-(5-methyl-1H-pyrazol-3-yl)quinazolin-4-amine]
≤ 10 nM	≤ 1 nM	≤ 10 nM	> 500 nM	Cc1cc(Nc2nc(C(F)(F)c3ccc(F)cn3)nc3cc(C(N)=O)ccc23)n[nH]1 [Example 41, 2-(difluoro(5-fluoropyridin-2-yl)methyl)-4-((5-methyl-1H-pyrazol-3-yl)amino)quinazoline-7-carboxamide]
≤ 10 nM	≤ 1 nM	≤ 10 nM	100 to 500 nM	Cc1cc(Nc2nc(C(F)(F)c3ccc(F)cn3)nc3c(N4CCOCC4=O)cccc23)n[nH]1 [Example 42, 4-(2-(difluoro(5-fluoropyridin-2-yl)methyl)-4-((5-methyl-1H-pyrazol-3-yl)amino)quinazolin-8-yl)morpholin-3-one]
≤ 10 nM	≤ 1 nM	≤ 10 nM	≤ 100 nM	COc1cccc2c(Nc3cc(C)[nH]n3)nc(C(F)(F)c3ccc(F)cn3)nc12 [Example 43, 2-(difluoro(5-fluoropyridin-2-yl)methyl)-8-methoxy-N-(5-methyl-1H-pyrazol-3-yl)quinazolin-4-amine]
≤ 10 nM	≤ 1 nM	≤ 10 nM	≤ 100 nM	Cc1cc(Nc2nc(C(F)(F)c3ccc(F)cn3)nc3c(NC=O)cccc23)n[nH]1 [Example 44, N-(2-(difluoro(5-fluoropyridin-2-yl)methyl)-4-((5-methyl-1H-pyrazol-3-yl)amino)quinazolin-8-yl)formamide]
≤ 10 nM	≤ 1 nM	≤ 10 nM	≤ 100 nM	Cc1cc(Nc2nc(C(F)(F)c3ccc(F)cn3)nc3c(C(=O)NC4COC4)cccc23)n[nH]1 [Example 45, 2-(difluoro(5-fluoropyridin-2-yl)methyl)-4-((5-methyl-1H-pyrazol-3-yl)amino)-N-(oxetan-3-yl)quinazoline-8-carboxamide]
≤ 10 nM	≤ 1 nM	≤ 10 nM	> 500 nM	Cc1cc(Nc2nc(C(F)(F)c3ccc(F)cn3)nc3c(O)cccc23)n[nH]1 [Example 46, 2-(difluoro(5-fluoropyridin-2-yl)methyl)-4-((5-methyl-1H-pyrazol-3-yl)amino)quinazolin-8-ol]
